Reference: patent US7303876B2 (Applera Corporation, priority 2000, dated 2007)

Columns and labels:
[1] = Solubility of surfactants (0.5% Sarkosyl, LDS, SDS, CTAB; 5.0% others) in salt solutions
Description: In certain instances, the solubility of detergents in high salt may relate to on the composition of the salt and the detergent itself. A mixing experiment was performed to examine the solubility of a variety of anionic, cationic, and nonionic surfactants in different salt compositions. […] The salt solutions contained Lil, Nal, KI, Rbl, Csl , GuSCN, GuHCl, or NaClO4, at pH 6.0 or 10.0. […] The solubility of the surfactants was scored as either soluble or insoluble. The solubility of the surfactant in the salt solution was determined initially by visual observations for cloudiness or precipitate formation. The resulting solutions were also centrifuged to verify the absence of a precipitate by the absence of a precipitate pellet.

[2] = test system: Calf thymus genomic DNA; experiment: Reversal by Tween 20 of DTAB inhibition of DNA recovery from GF/B
Description: Having identified the cationic surfactant as a major component inhibiting DNA recovery, the ability of a nonionic surfactant to reverse the inhibitory effect was examined. Calf thymus genomic DNA (8 μg) was bound to the glass fiber GF/B membrane in the presence of 0%, 1% and 4% dodecyltrimethylammonium bromide (DTAB) with increasing concentrations of Tween 20.
The binding buffer also contained 5M GuSCN, 20 mM EDTA, and 50 mM MES (pH 6.0). DNA was first eluted with 200 μl of TE followed by a separate elution with 100 μl of 0.1N NaOH. All binding and elution steps were done at ambient temperature.

[3] = test system: cationic surfactant: nucleic acid precipitate; experiment: Solubilizing the cationic surfactant: nucleic acid precipitate (calf thymus DNA + 1% CTAB); details: Calf thymus DNA 700 μg/ml, 100 mM Tris, pH 8, additive at final concentration
Description: Calf thymus DNA (Sigma; 700 μg/ml lightly sheared using an 18 gauge hypodermic needle) was mixed with 1% CTAB in 100 mM Tris, pH 8 to form a reaction composition.

[4] = test system: Liver tissue; experiment: Liver tissue disaggregation by 1% surfactant with or without Proteinase K at 60° C.; details: 60° C., 1% surfactant
Description: To evaluate the ability of various cationic surfactants to increase the digestion of tissue by Proteinase K, liver slices were digested using reaction compositions including one of the sixteen surfactants (shown in Table 4), both with and without Proteinase K. The reducing agent dithiothreitol (DTT) was included to evaluate the effect of reducing conditions on tissue digestion. […] One of the sixteen surfactants was added to one pair of tubes to yield a final concentration of 1% surfactant. The seventeenth pair of tubes served as non-surfactant controls. One milligram (mg) of Proteinase K was added to one tube of each of the seventeen pairs.
PK=presence or absence of Proteinase K in the reaction composition; Y=Proteinase K was present; N=Proteinase K was not present in the reaction composition.

[5] = Solubility of 1% cationic surfactants in 5M chaotropic salt solutions containing 2% Tween 20; details: 5M chaotropic salts, 2% Tween 20
Description: The solubilities of several cationic surfactants were examined in different chaotropic salt solutions. The cationic surfactants examined were cetyltrimethylammonium bromide (CTAB), cetyltrimethylammonium chloride (CTACl), tetradecyltrimethylammonium bromide (TTAB), tetradecyltrimethylammonium chloride (TTACl), dodecyltrimethylammonium bromide (DTAB), dodecyltrimethylammonium (DTACl), dodecylethyidimethylammonium bromide (DEDTAB), decyltrimethylammonium bromide (D10TAB), and dodecyltriphenylphosphonium bromide (DTPB). Each of the cationic surfactants tested was presented in a 1% concentration. Each of the cationic surfactants was examined in a 5M solution of one of the chaotropic salts containing 2% Tween 20. Each cationic surfactant and salt combination was tested at pH 6 (50 mM MES), pH 8 (50 mM Tris-HCl), and pH 10 (50 mM AMP).

[6] = test system: Calf thymus DNA; experiment: Effect of DTAB on DNA recovery when added before, during, and after DNA binding to GF/B; details: pretreatment with 5M salt with 1% DTAB (D+) versus without (D−)
Description: The inhibitory effect of the cationic surfactant, DTAB, was further examined. DTAB was introduced at various points of the purification reaction, before DNA binding, during binding, or after DNA binding has occurred on the solid phase. DNA binding and purification procedures were carried out using GF/B glass fiber filters (in a 96-well format) on the ABI PRISM 6100.
In set A, the GF/B membrane was pretreated with 100 μl of liquid lacking (A−) or containing (A+) 1% DTAB. Calf thymus DNA (8 μg) was then bound in 800 μL of 50 mM MES, pH 6.0, 20 mM EDTA, and 5 M salt (either NaBr or GUSCN).
In set B, the membranes were not prewashed. Calf thymus DNA (8 μg) was bound to GF/B glass fiber filters in 800 μl of 50 mM MES, pH, 6.0, 20 mM EDTA, and 5 M salt (either NaBr or GuSCN). Following binding, the membranes were washed in 50 mM MES, pH 6.0, 20 mM EDTA and 5 M salt (either NaBr or GuSCN) either lacking (B−) or containing (B+) 1% DTAB.
In set C, the membranes were not prewashed. Calf thymus DNA (8 μg) was bound to GF/B glass fiber filters in 800 μl of 50 mM MES, pH 6.0, 20 mM EDTA, and 5 M salt (either NaBr or GUSCN) either lacking (C−) or containing (C+) 1% DTAB.
In set D, the GF/B membrane was pretreated with 100 μl of 5 M salt (either NaBr or GuSCN) lacking (A−) or containing (A+) 1% DTAB. […]

Row | Molecule | Solubility of surfactant ([1]; 4 M GuHCl, Urea, pH 6.0) | Solubility of surfactant ([1]; 4 M GuHCl, Urea, pH 10.0) | Solubility of surfactant ([1]; 4 M KI, Urea, pH 6.0) | Solubility of surfactant ([1]; 4 M KI, Urea, pH 10.0) | Solubility of surfactant ([1]; 6 M GuHCl, pH 6.0) | Solubility of surfactant ([1]; 6 M GuHCl, pH 10.0) | Solubility of surfactant ([1]; 6 M NaI, pH 10.0) | concentration at which the amount of DNA recovered increased significantly ([2]; 0% DTAB, FIG. 21) | concentration that substantially blocked the inhibitory effect of the cationic surfactant ([2]; 1% DTAB, FIG. 22) | concentration that substantially blocked the inhibitory effect of the cationic surfactant ([2]; 4% DTAB, FIG. 23) | Result (solubilization of the CTAB: nucleic acid precipitate) [3] | Tissue Disaggregation ([4]; Fifteen Minutes Incubation, Proteinase K not present (N)) | Tissue Disaggregation ([4]; Fifteen Minutes Incubation, Proteinase K present (Y)) | Tissue Disaggregation ([4]; Fifty-Two Minutes Incubation, Proteinase K not present (N)) | Tissue Disaggregation ([4]; Fifty-Two Minutes Incubation, Proteinase K present (Y)) | relative solubility in chaotropic salt solutions (in words) [5] | subsequent binding of nucleic acid to GF/B [6]
1 | polyoxyethylenesorbitan monolaurate [Tween 20] | S | S | S | S | S | S | S | at least 1% | at least 2% | at least 4% | neither NaCl nor Tween 20, used alone, solubilized the precipitate |  |  |  |  |  | 
2 | CCCCCCCCCCCC[N+](C)(C)C.[Br-] [DTAB, dodecyltrimethylammonium bromide] |  |  |  |  |  |  |  |  |  |  |  | 0 | 2 | 0 | 3 | more soluble than larger surfactants | did not appear to influence subsequent binding of nucleic acid
